The source of these data is ChEMBL document CHEMBL4130396, “Bistinospinosides A and B, Dimeric Clerodane Diterpene Glycosides from Tinospora sagittata” (J Nat Prod, 2017).

Positions of bridges follow the written chain, without caps; N, C: chain ends. Non-standard residues stand in square brackets, D forms with d. Residues, ends and D or L forms follow the SMILES beside them. *: point of attachment. X1 = CC[C@H](C)CCCCC(=O)*; Dab = NCC[C@H](N)C(=O)O Bounds are passed on as bounds.

The test system of this assay is J774.1. Kind of assay: Antiinflammatory activity in mouse J774.1 cells assessed as inhibition of LPS/[…]-induced NO production after 48 hrs by Griess assay. Type of assay: functional, cell-based. The conditions noted are these: J774.1, 48 h. Background: Nitrite, measured by Griess reagent, commonly stands in for NO production.

Regarding `CC[C@H](C)CCCCC(=O)N[C@@H](CCN)C(=O)N[C@H](C(=O)N[C@@H](CCN)C(=O)N[C@H]1CCNC(=O)[C@H]([C@@H](C)O)NC(=O)[C@H](CCN)NC(=O)[C@H](CCN)NC(=O)[C@H](CC(C)C)NC(=O)[C@@H](Cc2ccccc2)NC(=O)[C@H](CCN)NC1=O)[C@@H](C)O` (X1-[Dab]T[Dab][Dab][Dab][dF]L[Dab][Dab]T; lactam 4-C), the IC50 amounted to 8.5 µM. For the molecule `C[C@@]12C[C@@H](C3=C[C@@H]4O[C@H]3[C@H]3[C@H]5OC(=O)[C@@](O[C@@H]6O[C@H](CO)[C@@H](O)[C@H](O)[C@H]6O)([C@H]34)[C@]3(C)CC[C@H]4C(=O)O[C@H](c6ccoc6)C[C@@]4(C)[C@H]53)OC(=O)[C@@H]1CC[C@]1(C)[C@H]2[C@H]2C=C[C@]1(O[C@@H]1O[C@H](CO)[C@@H](O)[C@H](O)[C@H]1O)C(=O)O2`, the IC50 was greater than 50 µM. The same measure for `C[C@@]12C[C@@H](C3=C[C@H]4O[C@@H]3[C@H]3[C@@H]4[C@H]4OC(=O)[C@]3(O[C@@H]3O[C@H](CO)[C@@H](O)[C@H](O)[C@H]3O)[C@]3(C)CC[C@H]5C(=O)O[C@H](c6ccoc6)C[C@@]5(C)[C@H]43)OC(=O)[C@@H]1CC[C@]1(C)[C@H]2[C@H]2C=C[C@]1(O[C@@H]1O[C@H](CO)[C@@H](O)[C@H](O)[C@H]1O)C(=O)O2`: greater than 50 µM.

In general, IC50 refers to the midpoint of a concentration-inhibition curve.
